This is an account of results in US20250122191A1, “COMPOUNDS AS BCL-2 INHIBITORS” (Fochon Biosciences, Ltd, priority 2021, published 2025).

Structures are written as SMILES.

Assay [1] concerns RS4;11-BCL-2 F104L cells. Kind of assay: Cell proliferation assay (MTS), RS4;11-BCL-2 F104L engineered cells. Type of assay: cell-based. The note with it: Homo sapiens, 120 h, read-out: RS4, 11 BCL2-F104L IC50. The text has this: MTS testing kit was purchased from Promega (Madison, WI, USA). The RPMI-1640, Fetal bovine serum and Penicillin-Streptomycin were purchased from BI (Biological Industries, Beit Haemek, Israel). Puromycin was purchased from Beyotime (shanghai, China). Dimethyl sulfoxide (DMSO) was purchased from Sigma (St. Louis., MO, USA). RS4;11-BCL-2 G101V (Cobioer Lot. #: CBD2021063013P4), RS4;11-BCL-2 D103E (Cobioer Lot. #: CBD2021063013P4), RS4;11-BCL-2 D103Y (Cobioer Lot. #: CBD2022012101P4) and RS4;11-BCL-2 F104L (Cobioer Lot. #: CBD2021063014P4) cells were cultured in RPMI1640 supplemented with 1 ug/mL puromycin, 100 U/mL Penicillin-Streptomycin and 10% FBS.
To investigate whether a compound is able to inhibit the activity of BCL-2 mutation in cells, a mechanism-based assay using engineered cell lines stably overexpressing BCL-2 mutation (RS4;11-BCL-2 G101V, RS4;11-BCL-2 D103E, RS4;11-BCL-2 D103Y, and RS4;11-BCL-2 F104L) was developed. In this assay, the inhibition of BCL-2 mutation was reflected by the inhibition of cell proliferation of engineered RS4;11 cells. Cells were plated into 96-well plates at optimized cell density (RS4;11-BCL-2 G101V: 5000 cells/well; RS4;11-BCL-2 D103E: 7500 cells/well; RS4;11-BCL-2 D103Y: 7500 cells/well; RS4;11-BCL-2 F104L: 5000 cells/well). Plates were incubated at 37° C., with 5% CO2 for 4 h (RS4;11-BCL-2 G101V, RS4;11-BCL-2 F104L) and 24 h (RS4;11-BCL-2 D103E, RS4;11-BCL-2 D103Y), respectively. Compounds were serially diluted and added to the plates with the final concentrations of 10000, 3333.3, 1111.1, 370.4, 123.5, 41.2, 13.7, 4.6 and 1.5 nM. Plates were incubated at 37° C., with 5% CO2 for 120 h (RS4; 11-BCL-2 G101V, RS4; 11-BCL-2 F104L) and 72 h (RS4;11-BCL-2 D103E, RS4;11-BCL-2 D103Y), respectively. 20 μl MTS was added into each well and the plates were incubated at 37° C., with 5% CO2 exactly for 2 h. The absorbance was measured by a microplate reader at 490 nm. IC50 values were calculated using GraphPad Prism 8.0 software.

Assay [2] concerns RS4;11-BCL-2 G101V cells. Kind of assay: Cell proliferation assay (MTS), RS4;11-BCL-2 G101V engineered cells. The class given is cell-based. The settings on record: Homo sapiens, 120 h, read-out: RS4, 11 BCL2-G101V IC50. The method in brief:
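Inhibition of mutant BCL-2 is inferred from reduced proliferation of RS4;11 cells stably overexpressing the mutant. Compounds are tested at 1.5–10000 nM for 120 h (G101V, F104L) or 72 h (D103E, D103Y), with MTS absorbance at 490 nm used to derive IC50.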

Consider `COc1cc(CN2CCC(N3CC4(CCN(c5ccc(C(=O)NS(=O)(=O)c6cnc(NC[C@H]7CC[C@](C)(O)CC7)c([N+](=O)[O-])c6)c(Oc6cc7c(F)c[nH]c7nc6OC)c5)CC4)C3)[C@H](c3ccccc3C(C)C)C2)ccn1` (single isomer, unassigned) [Example 363, 2-((3-fluoro-6-methoxy-1H-pyrrolo[2,3-b]pyridin-5-yl)oxy)-N-((6-((((1r,4r)-4-hydroxy-4-methylcyclohexyl)methyl)amino)-5-nitropyridin-3-yl)sulfonyl)-4-(2-(3-(2-isopropylphenyl)-1-((2-methoxypyridin-4-yl)methyl)piperidin-4-yl)-2,7-diazaspiro[3.5]nonan-7-yl)benzamide], for which the IC50 in assay [1] is 1 nM.
Consider `COc1ccc(CN2CCC(N3CC4(CCN(c5ccc(C(=O)NS(=O)(=O)c6cnc(NC[C@H]7CC[C@](C)(O)CC7)c([N+](=O)[O-])c6)c(Oc6cc7c(F)c[nH]c7nc6OC)c5)CC4)C3)C(c3ccccc3C(C)C)C2)cc1` (some centres unmarked) [Example 19, 2-((3-fluoro-6-methoxy-1H-pyrrolo[2,3-b]pyridin-5-yl)oxy)-N-((6-((((1r,4r)-4-hydroxy-4-methylcyclohexyl)methyl)amino)-5-nitropyridin-3-yl)sulfonyl)-4-(2-(3-(2-isopropylphenyl)-1-(4-methoxybenzyl)piperidin-4-yl)-2,7-diazaspiro[3.5]nonan-7-yl)benzamide], for which the IC50 in assay [1] worked out at 1 nM.
Turning to `CCOc1nc2[nH]cc(F)c2cc1Oc1cc(N2CCC3(CC2)CN(C2CCN(Cc4ccc(OC)cc4)CC2c2ccccc2C(C)C)C3)ccc1C(=O)NS(=O)(=O)c1cnc(NC[C@H]2CC[C@](C)(O)CC2)c([N+](=O)[O-])c1` (some centres unmarked) [Example 20, 2-((6-ethoxy-3-fluoro-1H-pyrrolo[2,3-b]pyridin-5-yl)oxy)-N-((6-((((1r,4r)-4-hydroxy-4-methylcyclohexyl)methyl)amino)-5-nitropyridin-3-yl)sulfonyl)-4-(2-(3-(2-isopropylphenyl)-1-(4-methoxybenzyl)piperidin-4-yl)-2,7-diazaspiro[3.5]nonan-7-yl)benzamide], the IC50 in assay [1] is 3 nM.
For the compound `COc1cc(CN2CCN(C3CC4(CCN(c5ccc(C(=O)NS(=O)(=O)c6cnc(NC[C@H]7CC[C@](C)(O)CC7)c([N+](=O)[O-])c6)c(Oc6cc7c(F)c[nH]c7nc6OC)c5)CC4)C3)[C@H](c3ccccc3C(C)C)C2)cc(C)n1` [Example 55, 2-((3-fluoro-6-methoxy-1H-pyrrolo[2,3-b]pyridin-5-yl)oxy)-N-((6-((((1r,4r)-4-hydroxy-4-methylcyclohexyl)methyl)amino)-5-nitropyridin-3-yl)sulfonyl)-4-(2-((R)-2-(2-isopropylphenyl)-4-((2-methoxy-6-methylpyridin-4-yl)methyl)piperazin-1-yl)-7-azaspiro[3.5]nonan-7-yl)benzamide], the IC50 in assay [2] and in assay [1] was 1 nM each time.
For `COc1cc(CN2CCN(C3CC4(CCN(c5ccc(C(=O)NS(=O)(=O)c6cnc(NC[C@H]7CC[C@](C)(O)CC7)c([N+](=O)[O-])c6)c(Oc6cc7c(F)c[nH]c7nc6OC)c5)CC4)C3)[C@H](c3ccccc3C(C)C)C2)cc(C#N)n1` [Example 56, 4-(2-((R)-4-((2-cyano-6-methoxypyridin-4-yl)methyl)-2-(2-isopropylphenyl)piperazin-1-yl)-7-azaspiro[3.5]nonan-7-yl)-2-((3-fluoro-6-methoxy-1H-pyrrolo[2,3-b]pyridin-5-yl)oxy)-N-((6-((((1r,4r)-4-hydroxy-4-methylcyclohexyl)methyl)amino)-5-nitropyridin-3-yl)sulfonyl)benzamide], the IC50 in assay [2] was determined as 2 nM; in assay [1], 3 nM.
For `COc1cc(CN2CCN(C3CC4(CCN(c5ccc(C(=O)NS(=O)(=O)c6cnc(NC[C@H]7CC[C@](C)(O)CC7)c([N+](=O)[O-])c6)c(Oc6cc7c(F)c[nH]c7nc6OC)c5)CC4)C3)[C@H](c3ccccc3C(C)C)C2)cc(N)n1` [Example 57, 4-(2-((R)-4-((2-amino-6-methoxypyridin-4-yl)methyl)-2-(2-isopropylphenyl)piperazin-1-yl)-7-azaspiro[3.5]nonan-7-yl)-2-((3-fluoro-6-methoxy-1H-pyrrolo[2,3-b]pyridin-5-yl)oxy)-N-((6-((((1r,4r)-4-hydroxy-4-methylcyclohexyl)methyl)amino)-5-nitropyridin-3-yl)sulfonyl)benzamide] the same measures were 1 nM and 1 nM.
`COc1ccc(CN2CCN(C3CC4(CCN(c5ccc(C(=O)NS(=O)(=O)c6cnc(NC[C@H]7CC[C@](C)(O)CC7)c([N+](=O)[O-])c6)c(Oc6cnc7[nH]ccc7c6)c5)CC4)C3)[C@H](c3ccccc3C(C)C)C2)cc1` [Example 61, 2-((1H-pyrrolo[2,3-b]pyridin-5-yl)oxy)-N-((6-((((1r,4r)-4-hydroxy-4-methylcyclohexyl)methyl)amino)-5-nitropyridin-3-yl)sulfonyl)-4-(2-((R)-2-(2-isopropylphenyl)-4-(4-methoxybenzyl)piperazin-1-yl)-7-azaspiro[3.5]nonan-7-yl)benzamide]: in assay [1], the IC50 came to 1 nM.
With `COc1cc(CN2CCN(C3CC4(CCN(c5ccc(C(=O)NS(=O)(=O)c6cnc(NC[C@H]7CC[C@](C)(O)CC7)c([N+](=O)[O-])c6)c(Oc6cc7c(F)c[nH]c7nc6OC)c5)CC4)C3)[C@H](c3ccccc3C(C)C)C2)cc(SC)n1` [Example 63, 2-((3-fluoro-6-methoxy-1H-pyrrolo[2,3-b]pyridin-5-yl)oxy)-N-((6-((((1r,4r)-4-hydroxy-4-methylcyclohexyl)methyl)amino)-5-nitropyridin-3-yl)sulfonyl)-4-(2-((R)-2-(2-isopropylphenyl)-4-((2-methoxy-6-(methylthio)pyridin-4-yl)methyl)piperazin-1-yl)-7-azaspiro[3.5]nonan-7-yl)benzamide], the IC50 in assay [2] and in assay [1] was 1 nM in each case.
Turning to `CCOc1nc2[nH]cc(F)c2cc1Oc1cc(N2CCC3(CC2)CC(N2CCOC[C@H]2c2ccccc2C(C)C)C3)ccc1C(=O)NS(=O)(=O)c1cnc(NC[C@H]2CC[C@](C)(O)CC2)c([N+](=O)[O-])c1` [Example 88, 2-((6-ethoxy-3-fluoro-1H-pyrrolo[2,3-b]pyridin-5-yl)oxy)-N-((6-((((1r,4r)-4-hydroxy-4-methylcyclohexyl)methyl)amino)-5-nitropyridin-3-yl)sulfonyl)-4-(2-((R)-3-(2-isopropylphenyl)morpholino)-7-azaspiro[3.5]nonan-7-yl)benzamide], the IC50 in assay [1] came to 1 nM.
On the same count and under the same terms, under `CCOc1nc2[nH]cc(F)c2cc1Oc1cc(N2CCC3(CC2)CC(N2CCC[C@H]2c2ccccc2C(C)C)C3)ccc1C(=O)NS(=O)(=O)c1cnc(NC[C@H]2CC[C@](C)(O)CC2)c([N+](=O)[O-])c1` [Example 90, 2-((6-ethoxy-3-fluoro-1H-pyrrolo[2,3-b]pyridin-5-yl)oxy)-N-((6-((((1r,4r)-4-hydroxy-4-methylcyclohexyl)methyl)amino)-5-nitropyridin-3-yl)sulfonyl)-4-(2-((S)-2-(2-isopropylphenyl)pyrrolidin-1-yl)-7-azaspiro[3.5]nonan-7-yl)benzamide] stands 1 nM.

In general, IC50 refers to the concentration needed to halve the response being measured.
